The text below walks through data of patent US9315490B2, “2,5-substituted pyrimidines” (Grünenthal GmbH, priority 2014, dated 2016).

In the assay the target is T1, human PDE4B1 (Homo sapiens, UniProt Q07343).
T1 construct: host or cells: Sf9 cells
The assay can be described thus: cAMP HTRF assay to determine the activity of hPDE4B1. It is filed as biochemical. The settings on record: inhibition of PDE4B at a test concentration of 1 μM. In short, it runs like this:
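Human recombinant PDE4B1 from Sf9 cells (4.8 U) in Tris-HCl, MgCl2, DTT, Tween 20 buffer at pH 7.8 with 40 nM cAMP (final), 30 min at room temperature. Reaction stopped with 1 mM IBMX; remaining cAMP detected by HTRF (665/620 nm ratio). IC50 from eight-concentration curves.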

T1 sequence (Q07343 whole entry): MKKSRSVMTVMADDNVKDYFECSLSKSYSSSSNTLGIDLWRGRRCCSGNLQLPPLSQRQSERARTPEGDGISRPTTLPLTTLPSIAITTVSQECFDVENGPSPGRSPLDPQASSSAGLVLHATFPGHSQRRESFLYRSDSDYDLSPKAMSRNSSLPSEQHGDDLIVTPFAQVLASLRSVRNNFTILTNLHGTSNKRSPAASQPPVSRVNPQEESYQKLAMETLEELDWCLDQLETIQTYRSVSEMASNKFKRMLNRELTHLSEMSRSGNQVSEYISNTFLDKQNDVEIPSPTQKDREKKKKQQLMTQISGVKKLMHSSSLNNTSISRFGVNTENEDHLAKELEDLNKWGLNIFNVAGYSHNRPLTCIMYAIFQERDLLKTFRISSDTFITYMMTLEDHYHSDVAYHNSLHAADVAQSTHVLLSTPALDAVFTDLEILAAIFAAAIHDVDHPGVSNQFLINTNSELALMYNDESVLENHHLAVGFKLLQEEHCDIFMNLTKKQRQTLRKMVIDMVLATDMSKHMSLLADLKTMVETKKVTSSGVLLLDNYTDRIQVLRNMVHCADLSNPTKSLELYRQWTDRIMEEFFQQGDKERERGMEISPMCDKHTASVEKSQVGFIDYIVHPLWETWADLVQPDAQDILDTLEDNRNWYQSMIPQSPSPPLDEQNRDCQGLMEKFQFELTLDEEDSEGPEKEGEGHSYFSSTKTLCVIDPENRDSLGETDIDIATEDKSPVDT

For the molecule `C[S+]([O-])c1cn(-c2ncc(-c3ccccc3F)cn2)c2cc(C(=O)N3CCCCC3CO)ccc12` (stereo not drawn) [Example 379, (1-(5-(2-Fluorophenyl)pyrimidin-2-yl)-3-(methylsulfinyl)-1H-indol-6-yl)(2-(hydroxymethyl)piperidin-1-yl)methanone], the inhibition at 1 µM came out at 50%.

For `COc1ccc(F)c(-c2cnc(-n3cc([S+](C)[O-])c4ccc(C(=O)N5CCNC(=O)C5)cc43)nc2)c1` (single isomer, unassigned) [Example 214, 4-(1-(5-(2-Fluoro-5-methoxyphenyl)pyrimidin-2-yl)-3-(methylsulfinyl)-1H-indole-6-carbonyl)piperazin-2-one], where the note is “1 µM”, the Inhibition in % worked out at 92%.

`C[C@@H]1CN(C(=O)c2ccc3c([S+](C)[O-])cn(-c4ncc(-c5ccccc5F)cn4)c3c2)CCO1` (stereo partly drawn) [Example 84, (1-(5-(2-Fluorophenyl)pyrimidin-2-yl)-3-(methylsulfinyl)-1H-indol-6-yl)((R)-2-methylmorpholino)methanone]: the inhibition at 1 µM is 106%.

For the molecule `C[S+]([O-])c1cn(-c2ncc(-c3ccc(C(N)=O)cc3F)cn2)c2cc(C(=O)N3CCNCC3)ccc12` (stereo not drawn) [Example 15, 3-Fluoro-4-(2-(3-(methylsulfinyl)-6-(piperazine-1-carbonyl)-1H-indol-1-yl)pyrimidin-5-yl)benzamide], the inhibition at 1 µM was 44%.

Regarding `C[S+]([O-])c1cn(-c2ncc(-c3ccccc3F)cn2)c2cc(C(=O)N3CCCNCC3)ccc12` (stereo not drawn) [Example 55, (1,4-Diazepan-1-yl)(1-(5-(2-fluorophenyl)pyrimidin-2-yl)-3-(methylsulfinyl)-1H-indol-6-yl)methanone], the inhibition at 1 µM is 40%.

In the case of `COc1cccc(-c2cnc(-n3cc([S+](C)[O-])c4ccc(C(=O)N5CCOCC5)cc43)nc2)c1` (single isomer, unassigned) [Example 158, (1-(5-(3-Methoxyphenyl)pyrimidin-2-yl)-3-(methylsulfinyl)-1H-indol-6-yl)(morpholino)methanone], for the setting “1 µM”, the Inhibition in % is 104%.

Consider `C[S+]([O-])c1cn(-c2ncc(-c3ccccc3)cn2)c2cc(C(=O)N3C[C@H]4C[C@@H]3CO4)ccc12` (stereo partly drawn) [Example 234, (1R,4R)-2-Oxa-5-azabicyclo[2.2.1]heptan-5-yl(3-(methylsulfinyl)-1-(5-phenylpyrimidin-2-yl)-1H-indol-6-yl)methanone], for which the inhibition at 1 µM worked out at 91%.

For `Cc1ccnc(-c2cnc(-n3cc([S+](C)[O-])c4ccc(C(=O)N5CCOCC5)cc43)nc2)c1` (racemic) [Example 142, (1-(5-(4-methylpyridin-2-yl)pyrimidin-2-yl)-3-(methylsulfinyl)-1H-indol-6-yl)(morpholino)methanone], the inhibition at 1 µM was 110%.

`COc1cccc(-c2cnc(-n3cc([S+](C)[O-])c4ccc(C(=O)N5CCNC(=O)C5)cc43)nc2)c1` (single isomer, unassigned) [Example 218, 4-(1-(5-(3-Methoxyphenyl)pyrimidin-2-yl)-3-(methylsulfinyl)-1H-indole-6-carbonyl)piperazin-2-one]: the Inhibition in % (1 µM) turned out to be 98%.

With `C[S+]([O-])c1cn(-c2ncc(-c3ccccc3F)cn2)c2cc(C(=O)N3CCC4(CC3)COC4)ccc12` (stereo not drawn) [Example 384, (1-(5-(2-Fluorophenyl)pyrimidin-2-yl)-3-(methylsulfinyl)-1H-indol-6-yl)(2-oxa-7-azaspiro[3.5]nonan-7-yl)methanone], the inhibition at 1 µM was found to be 3%.

For the molecule `CN(CC1(O)CC1)C(=O)c1ccc2c([S+](C)[O-])cn(-c3ncc(-c4ccccc4F)cn3)c2c1` (stereo not drawn) [Example 250, 1-(5-(2-Fluorophenyl)pyrimidin-2-yl)-N-((1-hydroxycyclopropyl)methyl)-N-methyl-3-(methylsulfinyl)-1H-indole-6-carboxamide], the inhibition at 1 µM was 30%.

Take `CC(O)c1cn(-c2ncc(-c3ccccc3)cn2)c2cc(C(=O)N3CCOCC3)ccc12` (single isomer, unassigned) [Example 255, (3-(1-Hydroxyethyl)-1-(5-phenylpyrimidin-2-yl)-1H-indol-6-yl)(morpholino)methanone]: the Inhibition in % amounted to 95%.
